Test [1] has as its target T1, Aldo-keto reductase family 1 member C21 (Mus musculus, UniProt Q91WR5).
T1 sequence (Q91WR5 whole entry): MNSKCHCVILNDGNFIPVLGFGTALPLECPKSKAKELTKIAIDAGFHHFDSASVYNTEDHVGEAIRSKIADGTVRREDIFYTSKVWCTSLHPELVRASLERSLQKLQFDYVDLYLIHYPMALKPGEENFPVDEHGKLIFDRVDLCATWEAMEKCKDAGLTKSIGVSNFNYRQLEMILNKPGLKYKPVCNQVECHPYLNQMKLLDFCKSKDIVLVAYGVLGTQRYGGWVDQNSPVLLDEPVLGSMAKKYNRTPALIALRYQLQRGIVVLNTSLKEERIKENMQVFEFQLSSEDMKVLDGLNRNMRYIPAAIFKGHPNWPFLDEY
Description: Inhibition of mouse recombinant AKR1C21.

Test [2] concerns the target Aldo-keto reductase family 1 member B1 (Homo sapiens, UniProt P15121). Description: Inhibition of human recombinant aldose reductase.
Test [3] has as its target T2, Aldo-keto reductase family 1 member C21 (Mus musculus) (UniProt Q91WR5).
T2 sequence (whole entry): T1 sequence (Q91WR5 whole entry)
Description: Inhibition of mouse recombinant AKR1C21 at 12 uM.

Here are results for seven compounds from ChEMBL document CHEMBL1143916, “Inhibition of 3(17)alpha-hydroxysteroid dehydrogenase (AKR1C21) by aldose reductase inhibitors” (Bioorg Med Chem, 2008).

For orientation: IC50 means the concentration needed to halve the response being measured. The Ki is a dissociation constant, usually derived from enzyme kinetics or from competition with a known ligand. A word on the inhibition: it is the share of the control response that was lost under treatment.

Take `O=C1CC2(C(=O)N1)C(=O)N(Cc1ccc(Br)cc1F)C(=O)c1ccc(F)cc12` (configuration not stated): in test [1], the IC50 was determined as 27.5 µM and the inhibitory constant (Ki) was determined as 10.4 µM.

As for `O=C(O)Cc1nn(Cc2nc3cc(C(F)(F)F)ccc3s2)c(=O)c2ccccc12` [ZOPOLRESTAT], the IC50 in test [1] is 158 µM.

As to `O=c1c(O)c(-c2cc(O)c(O)c(O)c2)oc2cc(O)cc(O)c12` [MYRICETIN], the half-maximal inhibitory concentration (IC50) in test [2] worked out at 29 µM; in test [1] it was 12.3 µM.

As for `O=c1cc(-c2ccccc2)oc2cc(O)cc(O)c12` [CHRYSIN], in test [2], the IC50 came out at 8.5 µM. In addition, in test [3], the inhibition is 36%.

`COc1ccc2c(C(=S)N(C)CC(=O)O)cccc2c1C(F)(F)F` [TOLRESTAT]: in test [1], the half-inhibitory concentration (IC50) stood at 48 µM and the Ki stood at 22 µM.

As for `C[C@@H]1O[C@@H](Oc2c(-c3ccc(O)c(O)c3)oc3cc(O)cc(O)c3c2=O)[C@H](O)[C@H](O)[C@H]1O` [QUERCITRIN], in test [1], the 50% inhibitory concentration (IC50) came to 33.3 µM.

For `O=c1c(O)c(-c2ccc(O)c(O)c2)oc2cc(O)cc(O)c12` [QUERCETIN], in test [1], the IC50 worked out at 6.9 µM and the inhibition constant Ki stood at 11 µM.
